Experimental data published in patent publication US12098148B2, “Therapeutic compounds” (C4X Discovery Limited, priority 2018, dated 2024).
pEC50, pIC50: −log10 of the molar value.

Tests used:
[1] = tested on: NQO1 mRNA in BEAS-2B cells; assay: Beas2B NQO1 mRNA cell based assay; set-up: species or system human; settings: Homo sapiens, BEAS-2B, 24 h, 24 h compound treatment, increase in NQO1 mRNA vs vehicle (0.1% DMSO), read-out: EC50
Experimental: Beas2B NQO1 mRNA Cell Based Assay
The up regulation of the NRF2 mediated gene NAD(P)H:quinone acceptor oxidoreductase 1 (NQO1) was measured using the following assay method: BEAS-2B cells (ATCC CRL-9609) were plated in 96-well clear plates at 20,000 cells/well in 75 μL of cell culture media and incubated overnight (37° C., 5% CO2). On day 2, 25 μL of compound or controls were added to the cells for 24 h. On day 3, the medium was aspirated from the plate and the Cells-to-CT™ 1-Step TaqMan® Kit (Ambion A25603) was used to perform expression analysis directly from cultured cells without RNA purification according to the manufacturer's instructions.
Briefly, cells were washed with ice cold PBS and 22.5 μL of room-temperature DNase/Lysis solution was added to the cells and incubated at room temperature for 5 minutes. To stop the reaction, 2.25 μL of stop solution was added to the cell lysate. The samples were diluted 1:5 using nuclease free water and 2.5 μL transferred into the PCR plate. Real-time PCR was performed using the C-1000 Thermal Cycler (Bio-Rad) using human beta actin as the internal control. The cDNA was amplified with a specific primer for NQO1 using the 1-step RT-PCR master mix (Ambion Cells-to-CT™ 1-Step TaqMan® Kit A25603). The primers/probes sets that were used for amplification of cDNA were obtained from TaqMan Gene Expression Assays (Applied Biosystems). The comparative CT (ΔΔCT) relative quantification method was used to calculate the relative mRNA level of the target gene NQO1 as described in the Applied Biosystems Chemistry Guide.

[2] = target: human KEAP1 (N-term, residues 321-609) (Homo sapiens, UniProt Q14145); assay: biochemical;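 further: fluorescence polarization competition assay of Kelch domain binding to NRF2, 12-point 1:3 dilution series from 10 µM, read after 1 h at room temperature, floor 10 nM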
human KEAP1 (N-term, residues 321-609), sequence (Q14145 321-609): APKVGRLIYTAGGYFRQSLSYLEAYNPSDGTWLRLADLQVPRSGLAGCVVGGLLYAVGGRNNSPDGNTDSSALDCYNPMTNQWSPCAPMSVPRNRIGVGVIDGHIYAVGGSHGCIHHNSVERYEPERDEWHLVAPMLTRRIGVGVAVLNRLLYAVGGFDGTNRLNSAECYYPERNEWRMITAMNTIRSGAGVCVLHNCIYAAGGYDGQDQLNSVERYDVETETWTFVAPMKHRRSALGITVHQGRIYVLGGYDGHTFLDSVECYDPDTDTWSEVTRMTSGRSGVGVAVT

pIC50 [2]	Structure (SMILES)	pEC50 [1]
8.06	COCCc1c(COc2ccc(Cl)c3c2[C@@H](CN2CCCC2=O)N(C(=O)[C@@H]2CCCC[C@]2(C)C(=O)O)CC3)nnn1C [Example 128, (1S,2R)-2-((i)-5-chloro-8-((5-(2-methoxyethyl)-1-methyl-1H-1,2,3-triazol-4-yl)methoxy)-1-((2-oxopyrrolidin-1-yl)methyl)-1,2,3,4-tetrahydroisoquinoline-2-carbonyl)-1-methylcyclohexane-1-carboxylic acid]	8.72
8.30	[2H]C1([2H])CC[C@](C)(C(=O)O)[C@H](C(=O)N2CCc3c(Cl)ccc(OCc4nnn(C)c4C(F)F)c3[C@H]2CN2CC3(CC3)CC2=O)C1 [Example 142, (1S,2R)-2-((S)-5-chloro-8-((5-(difluoromethyl)-1-methyl-1H-1,2,3-triazol-4-yl)methoxy)-1-((6-oxo-5-azaspiro[2.4]heptan-5-yl)methyl)-1,2,3,4-tetrahydroisoquinoline-2-carbonyl)-1-methylcyclohexane-1-carboxylic-4,4-d2 acid]	9.68
8.28	C[C@@H]1CC(=O)N(C[C@@H]2c3c(OCc4nnn(C)c4C4CC4)ccc(Cl)c3CCN2C(=O)[C@@H]2CCCC[C@]2(C)C(=O)O)C1 [Example 163, (1S,2R)-2-((S)-5-chloro-8-((5-cyclopropyl-1-methyl-1H-1,2,3-triazol-4-yl)methoxy)-1-(((R)-4-methyl-2-oxopyrrolidin-1-yl)methyl)-1,2,3,4-tetrahydroisoquinoline-2-carbonyl)-1-methylcyclohexane-1-carboxylic acid]	9.11
8.19	Cn1nnc(COc2ccc(F)c3c2[C@@H](CN2CCCC2=O)N(C(=O)[C@@H]2CCCC[C@]2(C)C(=O)O)CC3)c1C(F)(F)F [Example 178, (1S,2R)-2-((S)-5-fluoro-8-((1-methyl-5-(trifluoromethyl)-1H-1,2,3-triazol-4-yl)methoxy)-1-((2-oxopyrrolidin-1-yl)methyl)-1,2,3,4-tetrahydroisoquinoline-2-carbonyl)-1-methylcyclohexane-1-carboxylic acid]	7.89
8.08	Cc1onc(COc2ccc(Cl)c3c2[C@@H](CN2CCCC2=O)N(C(=O)[C@@H]2CCCC[C@]2(C)C(=O)O)CC3)c1C [Example 124, (1S,2R)-2-((S)-5-chloro-8-((4,5-dimethylisoxazol-3-yl)methoxy)-1-((2-oxopyrrolidin-1-yl)methyl)-1,2,3,4-tetrahydroisoquinoline-2-carbonyl)-1-methylcyclohexane-1-carboxylic acid]	8.17
8.10	C[C@@H]1CC(=O)N(C[C@@H]2c3c(OCc4cn(C)nn4)ccc(Cl)c3CCN2C(=O)[C@@H]2CCCC[C@]2(C)C(=O)O)C1 [Example 161, (1S,2R)-2-((S)-5-chloro-8-((1-methyl-1H-1,2,3-triazol-4-yl)methoxy)-(((R)-4-methyl-2-oxopyrrolidin-1-yl)methyl)-1,2,3,4-tetrahydroisoquinoline-2-carbonyl)-1-methylcyclohexane-1-carboxylic acid]	7.96
7.77	Cn1nnc(COc2ccc(Cl)c3c2[C@@H](CN2CCCC2=O)N(C(=O)C2CCOC2C(=O)O)CC3)c1C(F)F (stereo partly drawn) [Example 97, 3-((S)-5-chloro-8-((5-(difluoromethyl)-1-methyl-1H-1,2,3-triazol-4-yl)methoxy)-1-((2-oxopyrrolidin-1-yl)methyl)-1,2,3,4-tetrahydroisoquinoline-2-carbonyl) tetrahydrofuran-2-carboxylic acid]	6.12
8.15	Cn1nnc(COc2ccc(Cl)c3c2[C@@H](CN2CCCC2=O)N(C(=O)[C@@H]2CC4CCC2(C(=O)O)CC4)CC3)c1C(F)F [Example 141, (R)-2-((S)-5-chloro-8-((5-(difluoromethyl)-1-methyl-1H-1,2,3-triazol-4-yl)methoxy)-1-((2-oxopyrrolidin-1-yl)methyl)-1,2,3,4-tetrahydroisoquinoline-2-carbonyl)bicyclo[2.2.2]octane-1-carboxylic acid]	7.46
8.15	Cn1nnc(COc2ccc(Cl)c3c2[C@@H](CN2CCCC2=O)N(C(=O)[C@@H]2CCCC[C@]2(F)C(=O)O)CC3)c1C(F)F [Example 105, (1R,2S)-2-((S)-5-Chloro-8-((5-(difluoromethyl)-1-methyl-1H-1,2,3-triazol-4-yl)methoxy)-1-((2-oxopyrrolidin-1-yl)methyl)-1,2,3,4-tetrahydroisoquinoline-2-carbonyl)-1-fluorocyclohexane-1-carboxylic acid]	7.62
8.01	C[C@H]1CCN(C[C@@H]2c3c(OCc4nnn(C)c4C(F)F)ccc(Cl)c3CCN2C(=O)[C@@H]2CCCC[C@]2(C)C(=O)O)C1=O [Example 115, (1S,2R)-2-((1S)-5-Chloro-8-((5-(difluoromethyl)-1-methyl-1H-1,2,3-triazol-4-yl)methoxy)-1-(((S)-3-methyl-2-oxopyrrolidin-1-yl)methyl)-1,2,3,4-tetrahydroisoquinoline-2-carbonyl)-1-methylcyclohexane-1-carboxylic acid]	8.38
8.08	CCn1ncc(COc2ccc(Br)c3c2[C@@H](CN2Cc4ccccc4C2=O)N(C(=O)[C@@H]2CCCC[C@@H]2C(=O)O)CC3)n1 [Example 27, (1S,2R)-2-((S)-5-bromo-8-((2-ethyl-2H-1,2,3-triazol-4-yl)methoxy)-1-((1-oxoisoindolin-2-yl)methyl)-1,2,3,4-tetrahydroisoquinoline-2-carbonyl)cyclohexane-1-carboxylic acid]	7.74
	O=C(O)[C@H]1CCCC[C@H]1C(=O)N1CCc2c(Cl)ccc(OCc3noc4ccccc34)c2[C@H]1CN1CCCC1=O [Example 72, (1S,2R)-2-((S)-8-(Benzo[d]isoxazol-3-ylmethoxy)-5-chloro-1-((2-oxopyrrolidin-1-yl)methyl)-1,2,3,4-tetrahydroisoquinoline-2-carbonyl)cyclohexane-1-carboxylic acid]	8.55
	O=C1CCCN1C[C@@H]1c2c(OCc3noc4ccccc34)ccc(Cl)c2CCN1C(=O)[C@@H]1CCCC[C@@H]1c1nn[nH]n1 [Example 81, 1-(((S)-2-((1R,2S)-2-(2H-tetrazol-5-yl)cyclohexane-1-carbonyl)-8-(benzo[d]isoxazol-3-ylmethoxy)-5-chloro-1,2,3,4-tetrahydroisoquinolin-1-yl)methyl)pyrrolidin-2-one]	6.59
	Cn1nnc(COc2ccc(Cl)c3c2[C@@H](CN2CCCC2=O)N(C(=O)[C@@H]2CCCC[C@]2(C)c2nn[nH]n2)CC3)c1C(F)F [Example 151, 1-(((S)-5-chloro-8-((5-(difluoromethyl)-1-methyl-1H-1,2,3-triazol-4-yl)methoxy)-2-((1R,2S)-2-methyl-2-(2H-tetrazol-5-yl)cyclohexane-1-carbonyl)-1,2,3,4-tetrahydroisoquinolin-1-yl)methyl)pyrrolidin-2-one]	7.80
	C[C@@H]1CC(=O)N(C[C@@H]2c3c(OCc4nnn(C)c4C(F)(F)F)ccc(Cl)c3CCN2C(=O)[C@H]2CCCC[C@]2(C)C(=O)O)C1 [Example 133, (1S,2S)-2-((S)-5-chloro-1-(((R)-4-methyl-2-oxopyrrolidin-1-yl)methyl)-8((1-methyl-5-(trifluoromethyl)-1H-1,2,3-triazol-4-yl)methoxy)-1,2,3,4-tetrahydroisoquinoline-2-carbonyl)-1-methylcyclohexane-1-carboxylic acid]	7.70
	Cn1nnc(COc2ccc(Cl)c3c2[C@@H](CN2CC4(CC4)CC2=O)N(C(=O)[C@@H]2CCCC[C@@H]2c2nnn[nH]2)CC3)c1C(F)F [Example 202, 5-(((S)-2-((1R,2S)-2-(1H-tetrazol-5-yl)cyclohexane-1-carbonyl)-5-chloro-8-((5-(difluoromethyl)-1-methyl-1H-1,2,3-triazol-4-yl)methoxy)-1,2,3,4-tetrahydroisoquinolin-1-yl)methyl)-5-azaspiro[2.4]heptan-6-one]	7.10
	C[C@]1(C(=O)O)CCCC[C@H]1C(=O)N1CCc2c(Cl)cc(F)c(OCc3nnn4c3CCCC4)c2[C@H]1CN1CC2(CC2)CC1=O [Example 144, (1S,2R)-2-((S)-5-chloro-7-fluoro-1-((6-oxo-5-azaspiro[2.4]heptan-5-yl)methyl)-8-((4,5,6,7-tetrahydro-[1,2,3]triazolo[1,5-a]pyridin-3-yl)methoxy)-1,2,3,4-tetrahydroisoquinoline-2-carbonyl)-1-methylcyclohexane-1-carboxylic acid]	10.66
	Cn1nnc(COc2ccc(Cl)c3c2[C@@H](CN2CC4(CC4)CC2=O)N(C(=O)[C@@H]2CCCC[C@@H]2C(=O)O)CC3)c1C(F)F [Example 197, (1S,2R)-2-((S)-5-Chloro-8-((5-(difluoromethyl)-1-methyl-1H-1,2,3-triazol-4-yl)methoxy)-1-((6-oxo-5-azaspiro [2.4]heptan-5-yl)methyl)-1,2,3,4-tetrahydroisoquinoline-2-carbonyl) cyclohexane-1-carboxylic acid]	9.29
